Assays:
Type in all cases: in vivo
[1] = system: barnyardgrass (Echinochloa crusgalli); assay: Test B flooded paddy test, visual plant response rating 0-100; conditions: 250 g ai/ha, Flood, applied to paddy water, evaluated after 13 days
Method in brief: (§1)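 Plants were grown to the 2-leaf stage, then pots were flooded to 3 cm above the soil and compound was applied directly to the paddy water, with that depth kept throughout.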

[2] = system: rice (Oryza sativa); assay: as above; conditions: 250 g ai/ha, Flood, applied to paddy water, evaluated after 13 days
Method in brief: as §1

[3] = system: sedge, umbrella (small-flower umbrella sedge, Cyperus difformis); assay: as above; conditions: 250 g ai/ha, Flood, applied to paddy water, evaluated after 13 days
Method in brief: as §1

[4] = system: ducksalad (Heteranthera limosa); assay: as above; conditions: 250 g ai/ha, Flood, applied to paddy water, evaluated after 13 days
Method in brief: as §1

[5] = system: oat, wild (wild oat, Avena fatua); assay: Test A postemergence application, visual injury rating 0-100; conditions: 10 days; for Oat, Wild plant response rating (0-100): 31 g ai/ha, postemergence, 0 = no effect, 100 = complete control; for Oat, Wild plant response rating (0 to 100 scale): Postemergence, 125 g ai/ha, 0 is no effect, 100 is complete control
Method in brief: (§2)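 Preemergence directed soil spray or postemergence spray (2-10 cm, 1-2 leaf); loam/sand mix; compound in non-phytotoxic solvent + surfactant. Greenhouse, 10 d. Visual injury vs untreated, 0 = none, 100 = complete control.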

[6] = system: blackgrass (Alopecurus myosuroides); assay: as above; conditions: 10 days; for Blackgrass plant response rating (0-100): 31 g ai/ha, postemergence, 0 = no effect, 100 = complete control; for Blackgrass plant response rating (0 to 100 scale): Postemergence, 125 g ai/ha, 0 is no effect, 100 is complete control
Method in brief: as §2

[7] = system: galium (catchweed bedstraw, Galium aparine); assay: as above; conditions: 10 days; for Galium plant response rating (0-100): 31 g ai/ha, postemergence, 0 = no effect, 100 = complete control; for Galium plant response rating (0 to 100 scale): Postemergence, 125 g ai/ha, 0 is no effect, 100 is complete control
Method in brief: as §2

[8] = system: ragweed (common ragweed, Ambrosia artemisiifolia); assay: as above; conditions: 10 days; for Ragweed plant response rating (0-100): 31 g ai/ha, postemergence, 0 = no effect, 100 = complete control; for Ragweed plant response rating (0 to 100 scale): Postemergence, 125 g ai/ha, 0 is no effect, 100 is complete control
Method in brief: as §2

[9] = system: corn (Zea mays); assay: as above; conditions: 10 days; for Corn plant response rating (0-100): 31 g ai/ha, postemergence, 0 = no effect, 100 = complete control; for Corn plant response rating (0 to 100 scale): Postemergence, 125 g ai/ha, 0 is no effect, 100 is complete control
Method in brief: as §2

[10] = system: palmer (palmer amaranth, palmer pigweed, Amaranthus palmeri); assay: as above; conditions: 10 days; for Amaranth, Palmer plant response rating (0-100): 31 g ai/ha, postemergence, 0 = no effect, 100 = complete control; for Amaranth, Palmer / Pigweed, Palmer plant response rating (0 to 100 scale): Postemergence, 125 g ai/ha, 0 is no effect, 100 is complete control
Method in brief: as §2

[11] = system: kochia (Bassia scoparia); assay: as above; conditions: 10 days; for Kochia plant response rating (0-100): 31 g ai/ha, postemergence, 0 = no effect, 100 = complete control; for Kochia plant response rating (0 to 100 scale): Postemergence, 125 g ai/ha, 0 is no effect, 100 is complete control
Method in brief: as §2

[12] = system: barnyardgrass (Echinochloa crus-galli); assay: as above; conditions: 10 days; for Barnyardgrass plant response rating (0-100): 31 g ai/ha, postemergence, 0 = no effect, 100 = complete control; for Barnyardgrass plant response rating (0 to 100 scale): Postemergence, 125 g ai/ha, 0 is no effect, 100 is complete control
Method in brief: as §2

[13] = system: soybean (Glycine max); assay: as above; conditions: 10 days; for Soybean plant response rating (0-100): 31 g ai/ha, postemergence, 0 = no effect, 100 = complete control; for Soybean plant response rating (0 to 100 scale): Postemergence, 125 g ai/ha, 0 is no effect, 100 is complete control
Method in brief: as §2

[14] = system: horseweed (Erigeron canadensis); assay: as above; conditions: 10 days; for Horseweed plant response rating (0-100): 31 g ai/ha, postemergence, 0 = no effect, 100 = complete control; for Horseweed plant response rating (0 to 100 scale): Postemergence, 125 g ai/ha, 0 is no effect, 100 is complete control
Method in brief: as §2

[15] = system: wheat (Triticum aestivum); assay: as above; conditions: 10 days; for Wheat plant response rating (0-100): 31 g ai/ha, postemergence, 0 = no effect, 100 = complete control; for Wheat plant response rating (0 to 100 scale): Postemergence, 125 g ai/ha, 0 is no effect, 100 is complete control
Method in brief: as §2

[16] = system: ryegrass, Italian (italian ryegrass, Lolium multiflorum); assay: as above; conditions: 10 days; for Ryegrass, Italian plant response rating (0-100): 31 g ai/ha, postemergence, 0 = no effect, 100 = complete control; for Ryegrass, Italian plant response rating (0 to 100 scale): Postemergence, 125 g ai/ha, 0 is no effect, 100 is complete control
Method in brief: as §2

[17] = system: oat, wild (wild oat, Avena fatua); assay: Test A preemergence soil spray, visual injury rating 0-100; conditions: 10 days, 0 = no effect, 100 = complete control; for Oat, Wild plant response rating (0-100): 31 g ai/ha; for Oat, Wild plant response rating (0 to 100 scale): 125 g ai/ha
Method in brief: as §2

[18] = system: blackgrass (Alopecurus myosuroides); assay: as above; conditions: 10 days, 0 = no effect, 100 = complete control; for Blackgrass plant response rating (0-100): 31 g ai/ha; for Blackgrass plant response rating (0 to 100 scale): 125 g ai/ha
Method in brief: as §2

[19] = system: ragweed (common ragweed, Ambrosia artemisiifolia); assay: as above; conditions: 10 days, 0 = no effect, 100 = complete control; for Ragweed plant response rating (0-100): 31 g ai/ha; for Ragweed plant response rating (0 to 100 scale): 125 g ai/ha
Method in brief: as §2

[20] = system: corn (Zea mays); assay: as above; conditions: 10 days, 0 = no effect, 100 = complete control; for Corn plant response rating (0-100): 31 g ai/ha; for Corn plant response rating (0 to 100 scale): 125 g ai/ha
Method in brief: as §2

[21] = system: palmer (palmer amaranth, palmer pigweed, Amaranthus palmeri); assay: as above; conditions: 10 days, 0 = no effect, 100 = complete control; for Amaranth, Palmer plant response rating (0-100): 31 g ai/ha; for Amaranth, Palmer plant response rating (0 to 100 scale): 125 g ai/ha
Method in brief: as §2

[22] = system: kochia (Bassia scoparia); assay: as above; conditions: 10 days, 0 = no effect, 100 = complete control; for Kochia plant response rating (0-100): 31 g ai/ha; for Kochia plant response rating (0 to 100 scale): 125 g ai/ha
Method in brief: as §2

[23] = system: barnyardgrass (Echinochloa crus-galli); assay: as above; conditions: 10 days, 0 = no effect, 100 = complete control; for Barnyardgrass plant response rating (0-100): 31 g ai/ha; for Barnyardgrass plant response rating (0 to 100 scale): 125 g ai/ha
Method in brief: as §2

[24] = system: soybean (Glycine max); assay: as above; conditions: 10 days, 0 = no effect, 100 = complete control; for Soybean plant response rating (0-100): 31 g ai/ha; for Soybean plant response rating (0 to 100 scale): 125 g ai/ha
Method in brief: as §2

[25] = system: wheat (Triticum aestivum); assay: as above; conditions: 10 days, 0 = no effect, 100 = complete control; for Wheat plant response rating (0-100): 31 g ai/ha; for Wheat plant response rating (0 to 100 scale): 125 g ai/ha
Method in brief: as §2

[26] = system: ryegrass, Italian (italian ryegrass, Lolium multiflorum); assay: as above; conditions: 10 days, 0 = no effect, 100 = complete control; for Ryegrass, Italian plant response rating (0-100): 31 g ai/ha; for Ryegrass, Italian plant response rating (0 to 100 scale): 125 g ai/ha
Method in brief: as §2

## CCOC(=O)C1=CCC(NC(=O)C2(C)CN(c3cc(Cl)cc(Cl)c3)C(=O)O2)C1 (stereo not drawn) [Compound 60]
[1]
  Plant response rating, Barnyardgrass (0 to 100 scale, 0 is no effect and 100 is complete control): 70
[2]
  Plant response rating, Rice (0 to 100 scale, 0 is no effect and 100 is complete control): 65
[3]
  Plant response rating, Sedge, Umbrella (0 to 100 scale, 0 is no effect and 100 is complete control): 100
[4]
  Plant response rating, Ducksalad (0 to 100 scale, 0 is no effect and 100 is complete control): 95
[5]
  Oat, Wild plant response rating (0-100): 10
  Oat, Wild plant response rating (0 to 100 scale): 90
[6]
  Blackgrass plant response rating (0-100): 90
  Blackgrass plant response rating (0 to 100 scale): 100
[7]
  Galium plant response rating (0-100): 90
  Galium plant response rating (0 to 100 scale): 90
[8]
  Ragweed plant response rating (0-100): 0
  Ragweed plant response rating (0 to 100 scale): 20
[9]
  Corn plant response rating (0-100): 90
  Corn plant response rating (0 to 100 scale): 100
[10]
  Amaranth, Palmer plant response rating (0-100): 90
  Amaranth, Palmer / Pigweed, Palmer plant response rating (0 to 100 scale): 100
[11]
  Kochia plant response rating (0-100): 80
  Kochia plant response rating (0 to 100 scale): 80
[12]
  Barnyardgrass plant response rating (0-100): 90
  Barnyardgrass plant response rating (0 to 100 scale): 90
[13]
  Soybean plant response rating (0-100): 90
  Soybean plant response rating (0 to 100 scale): 100
[14]
  Horseweed plant response rating (0-100): 70
  Horseweed plant response rating (0 to 100 scale): 90
[15]
  Wheat plant response rating (0-100): 40
  Wheat plant response rating (0 to 100 scale): 90
[16]
  Ryegrass, Italian plant response rating (0-100): 90
  Ryegrass, Italian plant response rating (0 to 100 scale): 100
[17]
  Oat, Wild plant response rating (0-100): 0
  Oat, Wild plant response rating (0 to 100 scale): 20
[18]
  Blackgrass plant response rating (0-100): 0
  Blackgrass plant response rating (0 to 100 scale): 50
[19]
  Ragweed plant response rating (0-100): 30
  Ragweed plant response rating (0 to 100 scale): 60
[20]
  Corn plant response rating (0-100): 0
  Corn plant response rating (0 to 100 scale): 60
[21]
  Amaranth, Palmer plant response rating (0-100): 100
  Amaranth, Palmer plant response rating (0 to 100 scale): 100
[22]
  Kochia plant response rating (0-100): 40
  Kochia plant response rating (0 to 100 scale): 90
[23]
  Barnyardgrass plant response rating (0-100): 60
  Barnyardgrass plant response rating (0 to 100 scale): 100
[24]
  Soybean plant response rating (0-100): 10
  Soybean plant response rating (0 to 100 scale): 40
[25]
  Wheat plant response rating (0-100): 20
  Wheat plant response rating (0 to 100 scale): 80
[26]
  Ryegrass, Italian plant response rating (0-100): 60
  Ryegrass, Italian plant response rating (0 to 100 scale): 90

## COC(=O)C1=CCC(NC(=O)C2(C)CN(c3cc(Cl)cc(Cl)c3)C(=O)O2)C1 (stereo not drawn) [Compound 58]
[1]
  Plant response rating, Barnyardgrass (0 to 100 scale, 0 is no effect and 100 is complete control): 60
[2]
  Plant response rating, Rice (0 to 100 scale, 0 is no effect and 100 is complete control): 70
[3]
  Plant response rating, Sedge, Umbrella (0 to 100 scale, 0 is no effect and 100 is complete control): 98
[4]
  Plant response rating, Ducksalad (0 to 100 scale, 0 is no effect and 100 is complete control): 95
[5]
  Oat, Wild plant response rating (0-100): 30
  Oat, Wild plant response rating (0 to 100 scale): 70
[6]
  Blackgrass plant response rating (0-100): 90
  Blackgrass plant response rating (0 to 100 scale): 100
[7]
  Galium plant response rating (0-100): 90
  Galium plant response rating (0 to 100 scale): 90
[8]
  Ragweed plant response rating (0-100): 30
  Ragweed plant response rating (0 to 100 scale): 70
[9]
  Corn plant response rating (0-100): 100
  Corn plant response rating (0 to 100 scale): 100
[10]
  Amaranth, Palmer plant response rating (0-100): 90
  Amaranth, Palmer / Pigweed, Palmer plant response rating (0 to 100 scale): 100
[11]
  Kochia plant response rating (0-100): 80
  Kochia plant response rating (0 to 100 scale): 90
[12]
  Barnyardgrass plant response rating (0-100): 90
  Barnyardgrass plant response rating (0 to 100 scale): 90
[13]
  Soybean plant response rating (0-100): 90
  Soybean plant response rating (0 to 100 scale): 90
[14]
  Horseweed plant response rating (0-100): 80
  Horseweed plant response rating (0 to 100 scale): 90
[15]
  Wheat plant response rating (0-100): 60
  Wheat plant response rating (0 to 100 scale): 90
[16]
  Ryegrass, Italian plant response rating (0-100): 90
  Ryegrass, Italian plant response rating (0 to 100 scale): 90
[17]
  Oat, Wild plant response rating (0-100): 10
  Oat, Wild plant response rating (0 to 100 scale): 30
[18]
  Blackgrass plant response rating (0-100): 10
  Blackgrass plant response rating (0 to 100 scale): 30
[19]
  Ragweed plant response rating (0-100): 0
  Ragweed plant response rating (0 to 100 scale): 30
[20]
  Corn plant response rating (0-100): 10
  Corn plant response rating (0 to 100 scale): 60
[21]
  Amaranth, Palmer plant response rating (0-100): 80
  Amaranth, Palmer plant response rating (0 to 100 scale): 100
[22]
  Kochia plant response rating (0-100): 10
  Kochia plant response rating (0 to 100 scale): 70
[23]
  Barnyardgrass plant response rating (0-100): 80
  Barnyardgrass plant response rating (0 to 100 scale): 90
[24]
  Soybean plant response rating (0-100): 20
  Soybean plant response rating (0 to 100 scale): 50
[25]
  Wheat plant response rating (0-100): 20
  Wheat plant response rating (0 to 100 scale): 90
[26]
  Ryegrass, Italian plant response rating (0-100): 60
  Ryegrass, Italian plant response rating (0 to 100 scale): 80
